Reference: paper PMC3472523 (Journal of the American Chemical Society, 2012)
Residues, ends and D or L forms follow the SMILES beside them.

Legend:
Mcl-1 [1] = biological target: T1, Mcl-1 (Mus musculus, UniProt P97287); assay: Competitive fluorescence polarization; assay type: binding; details: competitive FP assay
[2] = test system: Mcl-1-overexpressing U937 cells; details: for Activity in cell viability assay: U937 cells
Stability in mouse serum = assay type: in vitro ADME; details: for half-life: mouse
[3] = Far-UV CD measurement of percent helicity; assay type: physicochemical; details: for Percent helicity: 50 μM in ACN/H2O (1:1), calculated from [θ]222
Bcl-xL [4] = biological target: T2, Bcl-xL (Homo sapiens, UniProt Q07817); assay: Direct FP binding assay of fluorescein-conjugated peptides
T2 sequence (Q07817 whole entry, species assumed): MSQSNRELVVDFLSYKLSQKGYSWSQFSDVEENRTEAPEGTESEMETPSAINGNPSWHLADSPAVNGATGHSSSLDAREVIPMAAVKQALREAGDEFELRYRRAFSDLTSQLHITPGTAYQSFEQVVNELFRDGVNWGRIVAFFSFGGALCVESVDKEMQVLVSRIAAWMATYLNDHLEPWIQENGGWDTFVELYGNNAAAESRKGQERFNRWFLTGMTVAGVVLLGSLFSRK

Mcl-1 [5] = biological target: T1, Mcl-1; assay: as above; details: read-out: Kd toward Mcl-1, N-terminal fluorescein-conjugated peptides
Bcl-xL [6] = biological target: T2, Bcl-xL; details: cited from earlier work
Bcl-2 = details: cited from earlier work
Mcl-1 [7] = biological target: T1, Mcl-1; details: cited from earlier work

T1 sequence (P97287 whole entry): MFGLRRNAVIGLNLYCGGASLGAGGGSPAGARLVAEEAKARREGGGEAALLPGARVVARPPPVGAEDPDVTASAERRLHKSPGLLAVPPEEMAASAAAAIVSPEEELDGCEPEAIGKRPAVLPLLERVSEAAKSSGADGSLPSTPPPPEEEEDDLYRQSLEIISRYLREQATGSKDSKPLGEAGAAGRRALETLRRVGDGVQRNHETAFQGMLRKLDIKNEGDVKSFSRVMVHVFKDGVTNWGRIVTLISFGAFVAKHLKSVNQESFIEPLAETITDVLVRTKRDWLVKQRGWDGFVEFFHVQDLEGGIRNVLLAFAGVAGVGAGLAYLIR

SMILES	Increase in inhibitory activity compared to parent Noxa peptide (Mcl-1 [1]) [fold]	Activity in cell viability assay ([2]; 20 μM peptide, 48 hours)	Increase in stability in mouse serum relative to linear Noxa peptide (Stability in mouse serum) [fold]	half-life (Stability in mouse serum) [h]	Percent helicity [3] [%]	also measured
CC[C@H](C)[C@@H]1NC(=O)[C@H](CCCNC(=N)N)NC(=O)[C@H](CCCNC(=N)N)NC(=O)[C@H](CC(C)C)NC(=O)[C@H](NC(=O)[C@H](C)NC(=O)[C@H](C)NC(C)=O)CSCc2ccc(cc2)-c2ccc(cc2)CSC[C@@H](C(=O)N[C@H](C(=O)N[C@@H](CC(N)=O)C(=O)N[C@@H](CC(C)C)C(=O)N[C@@H](CCCNC(=N)N)C(=O)N[C@@H](CCC(N)=O)C(=O)N[C@@H](CCCCN)C(=O)N[C@@H](CC(C)C)C(=O)N[C@@H](CC(C)C)C(=O)N[C@@H](CC(N)=O)C(N)=O)C(C)C)NC(=O)[C@H](CC(=O)O)NC(=O)CNC1=O [compound 2]	12	no activity	–	–	–	–
CC[C@H](C)[C@@H]1NC(=O)[C@H](C)NC(=O)[C@H](CCCNC(=N)N)NC(=O)[C@H](CC(C)C)NC(=O)[C@H](NC(=O)[C@H](C)NC(=O)[C@H](C)NC(C)=O)CSCc2ccc(cc2)-c2ccc(cc2)CSC[C@@H](C(=O)N[C@H](C(=O)N[C@@H](CC(N)=O)C(=O)N[C@@H](CC(C)C)C(=O)N[C@@H](C)C(=O)N[C@@H](CCC(N)=O)C(=O)N[C@@H](C)C(=O)N[C@@H](CC(C)C)C(=O)N[C@@H](CC(C)C)C(=O)N[C@@H](CC(N)=O)C(N)=O)C(C)C)NC(=O)[C@H](CC(=O)O)NC(=O)CNC1=O [compound 5] (HELM PEPTIDE1{[ac].A.A.[dC].L.R.A.I.G.D.C.V.N.L.A.Q.A.L.L.N.[am]}|CHEM1{[c1cc(-c2ccc(C[*:2])cc2)ccc1C[*:1]]}$PEPTIDE1,CHEM1,4:R3-1:R1|PEPTIDE1,CHEM1,11:R3-1:R2$$$V2.0)	–	–	180	31.6 ± 2.2	66	Increase in helicity, 5 compared to 2 [3]: more than twofold
CC[C@H](C)[C@@H]1NC(=O)[C@H](CCCNC(=N)N)NC(=O)[C@H](CCCNC(=N)N)NC(=O)[C@H](CC(C)C)NC(=O)[C@@H](NC(=O)[C@H](C)NC(=O)[C@H](C)NC(C)=O)CSCc2ccc(cc2)-c2ccc(cc2)CSC[C@@H](C(=O)N[C@H](C(=O)N[C@@H](CC(N)=O)C(=O)N[C@@H](CC(C)C)C(=O)N[C@@H](CCCNC(=N)N)C(=O)N[C@@H](CCC(N)=O)C(=O)N[C@@H](CCCCN)C(=O)N[C@@H](CC(C)C)C(=O)N[C@@H](CC(C)C)C(=O)N[C@@H](CC(N)=O)C(N)=O)C(C)C)NC(=O)[C@H](CC(=O)O)NC(=O)CNC1=O [compound 1]	65	no activity	–	–	–	–
CC[C@H](C)[C@H](NC(=O)[C@H](CCCNC(=N)N)NC(=O)[C@H](CCCNC(=N)N)NC(=O)[C@H](CC(C)C)NC(=O)[C@H](CCC(N)=O)NC(=O)[C@H](C)NC(=O)[C@H](C)NC(C)=O)C(=O)NCC(=O)N[C@@H](CC(=O)O)C(=O)N[C@@H](CCCCN)C(=O)N[C@H](C(=O)N[C@@H](CC(N)=O)C(=O)N[C@@H](CC(C)C)C(=O)N[C@@H](CCCNC(=N)N)C(=O)N[C@@H](CCC(N)=O)C(=O)N[C@@H](CCCCN)C(=O)N[C@@H](CC(C)C)C(=O)N[C@@H](CC(C)C)C(=O)N[C@@H](CC(N)=O)C(N)=O)C(C)C [Noxa, reference compound]	–	no activity	–	0.175 ± 0.0383	–	Kd (Bcl-xL [4]): > 1000 nM; Cell viability ([2]; ATP assay, U937 cells in RPMI1640 with 5% FBS, 20 μM peptide, 48 hours): 97.6±0.9%; Kd (Mcl-1 [5]): 6.7 ± 1 nM
CC[C@H](C)[C@@H]1NC(=O)[C@H](C)NC(=O)[C@H](CCCNC(=N)N)NC(=O)[C@H](CC(C)C)NC(=O)[C@H](NC(=O)[C@H](C)N(C)C(=O)[C@H](C)N(C)C(=O)OC)CSCc2ccc(cc2)-c2ccc(cc2)CSC[C@@H](C(=O)N[C@H](C(=O)N[C@@H](CC(N)=O)C(=O)N[C@@H](CC(C)C)C(=O)N[C@@H](C)C(=O)N[C@@H](CCC(N)=O)C(=O)N[C@@H](C)C(=O)N[C@@H](CC(C)C)C(=O)N[C@@H](CC(C)C)C(=O)N[C@@H](CC(N)=O)C(N)=O)C(C)C)NC(=O)[C@H](CC(=O)O)NC(=O)CNC1=O [compound 8] (HELM PEPTIDE1{[COC(=O)[*:2]].[meA].[meA].[dC].L.R.A.I.G.D.C.V.N.L.A.Q.A.L.L.N.[am]}|CHEM1{[c1cc(-c2ccc(C[*:2])cc2)ccc1C[*:1]]}$PEPTIDE1,CHEM1,4:R3-1:R1|PEPTIDE1,CHEM1,11:R3-1:R2$$$V2.0)	–	–	121	21.2 ± 2.6	52	EC50 ([2]; 48 h): 13400 nM
CN(C)CC[C@H](CSc1ccccc1)Nc1ccc(S(=O)(=O)NC(=O)c2ccc(N3CCN(Cc4ccccc4-c4ccc(Cl)cc4)CC3)cc2)cc1[N+](=O)[O-] [ABT-737]	–	–	–	–	–	Binding affinity to Bcl-xL (Bcl-xL [6]): subnanomolar affinity; Binding affinity to Bcl-2 (Bcl-2): subnanomolar affinity; Binding to Mcl-1 (Mcl-1 [7]): poorly
